This is an account of results in patent publication US11174252B2, “Heterocyclic compounds as kinase inhibitors” (priority 2018, dated 2021).

For orientation: IC50 means the point on the concentration scale where inhibition reaches its midpoint.

In test [1] the target is CDK4 (Homo sapiens (Human), UniProt P11802). Kind of test: In vitro kinase inhibition, luminescence (ADP-Glo) with retinoblastoma substrate. Type of test: biochemical. In general terms: ADP-Glo first removes unused ATP, then detects ADP through luciferase.
The target in test [2] is CDK6 (Homo sapiens (Human), UniProt Q00534). The test can be described thus: biochemical. The class given is biochemical.
Test [3] has as its target FMS kinase (Homo sapiens (Human), UniProt P07333). Kind of test: LanthaScreen kinase assay (ATP, fluorescent-PolyGT substrate, TR-FRET). Type of test: biochemical. Background: Time-resolved FRET reads energy transfer from a long-lived donor to a nearby acceptor.
Test [4] has as its system MCF-7. The test can be described thus: Cancer cell proliferation assay, single agent. The class given is cell-based. The settings on record: Homo sapiens.
Test [5] relates to DU4475. The test can be described thus: Cancer cell proliferation assay, single agent. Type of test: cell-based. The settings on record: Homo sapiens.
Setting [6] is: MCF7, MCF-7 cells, treated for 24-168 hours, read-out: IC50 (nM) MCF-7.
The mark [7] stands for this setting: DU-4475, DU4475 cells, treated for 24-168 hours, read-out: IC50 (nM) DU4475.
[8] abbreviates: DU-4475, read-out: IC50 (nM) DU4475.
Where [9] appears, read: MCF7, read-out: IC50 (nM) MCF-7.

Like-named read-outs stand apart in the source and are kept apart here.

FMS kinase, sequence (P07333 20-972): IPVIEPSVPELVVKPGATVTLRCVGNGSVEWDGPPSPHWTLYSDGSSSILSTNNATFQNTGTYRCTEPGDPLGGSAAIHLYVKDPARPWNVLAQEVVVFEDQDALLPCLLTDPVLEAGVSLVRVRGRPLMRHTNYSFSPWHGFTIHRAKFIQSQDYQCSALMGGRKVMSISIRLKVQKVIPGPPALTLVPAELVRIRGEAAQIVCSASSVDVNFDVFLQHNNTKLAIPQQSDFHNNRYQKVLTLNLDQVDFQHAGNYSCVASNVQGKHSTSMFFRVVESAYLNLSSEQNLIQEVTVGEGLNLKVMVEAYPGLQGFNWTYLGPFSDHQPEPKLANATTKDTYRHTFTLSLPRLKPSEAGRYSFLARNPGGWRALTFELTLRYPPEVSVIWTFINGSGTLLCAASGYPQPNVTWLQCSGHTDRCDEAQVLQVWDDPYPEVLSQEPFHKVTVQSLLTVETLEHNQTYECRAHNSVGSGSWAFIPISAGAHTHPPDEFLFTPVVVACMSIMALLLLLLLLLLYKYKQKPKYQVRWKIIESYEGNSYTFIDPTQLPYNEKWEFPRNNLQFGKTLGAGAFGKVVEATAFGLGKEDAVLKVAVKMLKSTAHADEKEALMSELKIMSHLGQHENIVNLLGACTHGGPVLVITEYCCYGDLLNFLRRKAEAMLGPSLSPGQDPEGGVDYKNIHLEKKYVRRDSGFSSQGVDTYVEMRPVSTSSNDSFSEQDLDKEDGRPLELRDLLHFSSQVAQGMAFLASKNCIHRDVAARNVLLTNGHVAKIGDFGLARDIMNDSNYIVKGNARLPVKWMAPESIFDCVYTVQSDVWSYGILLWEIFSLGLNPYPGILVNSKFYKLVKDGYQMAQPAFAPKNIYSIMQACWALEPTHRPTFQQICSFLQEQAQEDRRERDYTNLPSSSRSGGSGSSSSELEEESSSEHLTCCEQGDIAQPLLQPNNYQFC
CDK4, sequence (P11802 whole entry): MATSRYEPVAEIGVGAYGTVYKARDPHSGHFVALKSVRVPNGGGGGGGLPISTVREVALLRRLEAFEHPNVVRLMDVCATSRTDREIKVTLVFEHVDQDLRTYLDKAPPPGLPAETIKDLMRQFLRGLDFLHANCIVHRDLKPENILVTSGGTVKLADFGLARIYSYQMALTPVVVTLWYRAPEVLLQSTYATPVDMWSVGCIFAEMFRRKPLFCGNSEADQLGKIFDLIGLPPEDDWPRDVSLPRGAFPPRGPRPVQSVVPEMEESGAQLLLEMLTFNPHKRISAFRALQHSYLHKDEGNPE
CDK4, sequence (P24385 whole entry partner): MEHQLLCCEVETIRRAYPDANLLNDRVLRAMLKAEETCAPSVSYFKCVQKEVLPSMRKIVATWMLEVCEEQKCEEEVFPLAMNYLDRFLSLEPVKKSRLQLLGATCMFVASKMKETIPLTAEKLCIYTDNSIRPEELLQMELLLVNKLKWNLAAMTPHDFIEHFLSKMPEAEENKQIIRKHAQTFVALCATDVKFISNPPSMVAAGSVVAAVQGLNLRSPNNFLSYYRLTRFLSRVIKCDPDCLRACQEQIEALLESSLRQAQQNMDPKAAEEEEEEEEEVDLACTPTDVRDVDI

Take `CC(C)N1CCOc2c(F)cc(-c3nc(Nc4ccc(C(=O)N5CCC(N(C)C)CC5)c(F)c4)ncc3F)cc21` [Compound 463, (4-(dimethylamino)piperidin-1-yl)(2-fluoro-4-((5-fluoro-4-(8-fluoro-4-isopropyl-3,4-dihydro-2H-benzo[b][1,4]oxazin-6-yl)pyrimidin-2-yl)amino)phenyl)methanone]: the IC50 was found to be 1.5 nM in test [1]; 3.5 nM in test [2]; 17 nM in test [3]; 20 nM in test [4] (setting [6]); 25 nM in test [5] (setting [7]).

Regarding `CC(C)N1CCOc2c(F)cc(-c3nc(Nc4ccc(N5CCC(N)CC5)cn4)ncc3F)cc21` [Compound 788, N-(5-(4-aminopiperidin-1-yl)pyridin-2-yl)-5-fluoro-4-(8-fluoro-4-isopropyl-3,4-dihydro-2H-benzo[b][1,4]oxazin-6-yl)pyrimidin-2-amine], the IC50 is 2 nM in test [1], 4 nM in test [2], 130 nM in test [4] (setting [6]) and 920 nM in test [5] (setting [8]).

Consider `CC(C)N1CCOc2c(F)cc(-c3nc(Nc4ccc(CN5CCC(N(C)C)CC5)c(F)c4)ncc3F)cc21` [Compound 462, N-(4-((4-(dimethylamino)piperidin-1-yl)methyl)-3-fluorophenyl)-5-fluoro-4-(8-fluoro-4-isopropyl-3,4-dihydro-2H-benzo[b][1,4]oxazin-6-yl)pyrimidin-2-amine], for which the half-inhibitory concentration (IC50) came to 5.5 nM in test [1]; 9 nM in test [2]; 25 nM in test [3]; 40 nM in test [4] (setting [6]); 65 nM in test [5] (setting [7]).

On to `CC1CN(C(=O)c2ccc(Nc3ncc(F)c(-c4cc(F)c5c(c4)N(C(C)C)CCO5)n3)nc2)CC(C)O1` (centres unmarked) [Compound 511, (2,6-dimethylmorpholino)(6-((5-fluoro-4-(8-fluoro-4-isopropyl-3,4-dihydro-2H-benzo[b][1,4]oxazin-6-yl)pyrimidin-2-yl)amino)pyridin-3-yl)methanone], for which the IC50 was determined as 648 nM in test [4] (setting [6]) and 3790 nM in test [5] (setting [7]).

Regarding `CC(C)N1CCOc2c(F)cc(-c3nc(Nc4ccc(CN5CCN(CC6CC6)CC5)cn4)ncc3F)cc21` [Compound 516, N-(5-((4-(cyclopropylmethyl)piperazin-1-yl)methyl)pyridin-2-yl)-5-fluoro-4-(8-fluoro-4-isopropyl-3,4-dihydro-2H-benzo[b][1,4]oxazin-6-yl)pyrimidin-2-amine], the half-inhibitory concentration (IC50) in test [1] worked out at 1 nM; in test [2], 4 nM; in test [4] (setting [6]) it was 155 nM; in test [5] (setting [7]), 995 nM.

For `CC(C)N1CCOc2c(F)cc(-c3nc(Nc4cn(C5CCN(C)CC5)cn4)ncc3F)cc21` [Compound 496, 5-fluoro-4-(8-fluoro-4-isopropyl-3,4-dihydro-2H-benzo[b][1,4]oxazin-6-yl)-N-(1-(1-methylpiperidin-4-yl)-1H-imidazol-4-yl)pyrimidin-2-amine], the IC50 in test [4] (setting [9]) was 1450 nM; in test [5] (setting [8]), 3420 nM.

As to `CC1CN(c2ccc(Nc3ncc(F)c(-c4cc(F)c5c(c4)N(C(C)C)CCO5)n3)nc2)CC(C)O1` (centres unmarked) [Compound 515, N-(5-(2,6-dimethylmorpholino)pyridin-2-yl)-5-fluoro-4-(8-fluoro-4-isopropyl-3,4-dihydro-2H-benzo[b][1,4]oxazin-6-yl)pyrimidin-2-amine], the concentration for half-maximal inhibition (IC50) in test [1] was 145 nM; in test [2], greater than 200 nM; in test [4] (setting [6]), 2500 nM; in test [5] (setting [7]) it was greater than 10000 nM.

`CC(C)N1CCOc2c(F)cc(-c3nc(Nc4ccc(C(=O)N5CCOCC5)c(F)c4)ncc3F)cc21` [Compound 457, (2-fluoro-4-((5-fluoro-4-(8-fluoro-4-isopropyl-3,4-dihydro-2H-benzo[b][1,4]oxazin-6-yl)pyrimidin-2-yl)amino)phenyl)(morpholino)methanone]: the IC50 was 3.5 nM in test [1]; 7.5 nM in test [2]; 68 nM in test [3]; 55 nM in test [4] (setting [6]); 30 nM in test [5] (setting [7]).

On to `CC(C)N1CCOc2c(F)cc(-c3nc(Nc4ccc(C(N)=O)cn4)ncc3F)cc21` [Compound 521, 6-((5-fluoro-4-(8-fluoro-4-isopropyl-3,4-dihydro-2H-benzo[b][1,4]oxazin-6-yl)pyrimidin-2-yl)amino)nicotinamide], for which the half-inhibitory concentration (IC50) in test [1] amounted to 5.5 nM; in test [2], 19.8 nM; in test [4] (setting [6]) it was 3670 nM; in test [5] (setting [7]), 7700 nM.

Turning to `CCN1CCN(Cc2ccc(Nc3ncc(F)c(-c4cc(F)c5c(c4)N(C(C)C)CCO5)n3)cc2F)CC1` [Compound 461, N-(4-((4-ethylpiperazin-1-yl)methyl)-3-fluorophenyl)-5-fluoro-4-(8-fluoro-4-isopropyl-3,4-dihydro-2H-benzo[b][1,4]oxazin-6-yl)pyrimidin-2-amine], the half-inhibitory concentration (IC50) is 3.5 nM in test [1]; 9 nM in test [2]; 17 nM in test [3]; 30 nM in test [4] (setting [6]); 50 nM in test [5] (setting [7]).

Consider `CCN1CCC(c2ccc(Nc3ncc(F)c(-c4cc(F)c5c(c4)N(C(C)C)CCO5)n3)nc2)CC1` [Compound 501, N-(5-(1-ethylpiperidin-4-yl)pyridin-2-yl)-5-fluoro-4-(8-fluoro-4-isopropyl-3,4-dihydro-2H-benzo[b][1,4]oxazin-6-yl)pyrimidin-2-amine], for which the IC50 came to 2 nM in test [1], 5 nM in test [2], 140 nM in test [4] (setting [9]) and 1020 nM in test [5] (setting [8]).

For `CC(C)N1CCOc2c(F)cc(-c3nc(Nc4cccc(S(N)(=O)=O)c4)ncc3F)cc21` [Compound 520], the IC50 in test [4] (setting [6]) was 13 nM; in test [5] (setting [7]) it was less than 7 nM.

As to `CC(C)N1CCOc2c(F)cc(-c3nc(Nc4ccc(C5CCN(C)CC5)nn4)ncc3F)cc21` [Compound 517, N-(5-fluoro-4-(8-fluoro-4-isopropyl-3,4-dihydro-2H-benzo[b][1,4]oxazin-6-yl)pyrimidin-2-yl)-6-(1-methylpiperidin-4-yl)pyridazin-3-amine], the half-inhibitory concentration (IC50) in test [1] is 1.5 nM; in test [2], 4 nM; in test [4] (setting [6]) it was 108 nM; in test [5] (setting [7]), 275 nM.

On to `CC(C)N1CCOc2c(F)cc(-c3nc(Nc4ccc(N5CCN(C(=O)CO)CC5)cn4)ncc3F)cc21` [Compound 506, 1-(4-(6-((5-fluoro-4-(8-fluoro-4-isopropyl-3,4-dihydro-2H-benzo[b][1,4]oxazin-6-yl)pyrimidin-2-yl)amino)pyridin-3-yl)piperazin-1-yl)-2-hydroxyethan-1-one], for which the concentration for half-maximal inhibition (IC50) in test [4] (setting [6]) came to 354 nM; in test [5] (setting [8]), 1500 nM.

On to `CC(C)N1CCOc2c(F)cc(-c3nc(Nc4ccc(C(N)=O)c(F)c4)ncc3F)cc21` [Compound 790, 2-fluoro-4-((5-fluoro-4-(8-fluoro-4-isopropyl-3,4-dihydro-2H-benzo[b][1,4]oxazin-6-yl)pyrimidin-2-yl)amino)benzamide], for which the values for the IC50 in test [2], in test [4] (setting [6]) and in test [5] (setting [7]) were 3 nM, 17 nM and 20 nM, respectively.

In the case of `Cc1nc(Nc2ncc(F)c(-c3cc(F)c4c(c3)N(C(C)C)CCO4)n2)ccc1C1CCN(C)CC1` [Compound 503, 5-fluoro-4-(8-fluoro-4-isopropyl-3,4-dihydro-2H-benzo[b][1,4]oxazin-6-yl)-N-(6-methyl-5-(1-methylpiperidin-4-yl)pyridin-2-yl)pyrimidin-2-amine], the IC50 worked out at 5 nM in test [1], 18 nM in test [2], 240 nM in test [4] (setting [6]) and 1260 nM in test [5] (setting [7]).

In the case of `CC(C)N1CCOc2c(F)cc(-c3nc(Nc4ccc(C5CCN(C(=O)CO)CC5)cn4)ncc3F)cc21` [Compound 510, 1-(4-(6-((5-fluoro-4-(8-fluoro-4-isopropyl-3,4-dihydro-2H-benzo[b][1,4]oxazin-6-yl)pyrimidin-2-yl)amino)pyridin-3-yl)piperidin-1-yl)-2-hydroxyethan-1-one], the concentration for half-maximal inhibition (IC50) in test [1] amounted to 3 nM; in test [2], 4 nM; in test [4] (setting [9]), 293 nM; in test [5] (setting [8]), 1970 nM.

On to `CC(C)N1CCOc2c(F)cc(-c3nc(Nc4ccc(S(=O)(=O)NC5CCNCC5)cc4)ncc3F)cc21` [Compound 791, 4-((5-fluoro-4-(8-fluoro-4-isopropyl-3,4-dihydro-2H-benzo[b][1,4]oxazin-6-yl)pyrimidin-2-yl)amino)-N-(piperidin-4-yl)benzenesulfonamide], for which the half-maximal inhibitory concentration (IC50) in test [1] was found to be 9 nM; in test [2], 41 nM; in test [4] (setting [6]) it was 90 nM; in test [5] (setting [7]), 205 nM.

For `CC(C)N1CCOc2c(F)cc(-c3nc(Nc4ccc(CN5CCN(C)CC5)c(F)c4)ncc3F)cc21` [Compound 792, 5-fluoro-N-(3-fluoro-4-((4-methylpiperazin-1-yl)methyl)phenyl)-4-(8-fluoro-4-isopropyl-3,4-dihydro-2H-benzo[b][1,4]oxazin-6-yl)pyrimidin-2-amine], the IC50 was determined as 4 nM in test [1], 4 nM in test [2], 32 nM in test [4] (setting [6]) and 75 nM in test [5] (setting [8]).

`CC(C)N1CCOc2c(F)cc(-c3nc(Nc4ccc(S(=O)(=O)N5CCN(C)CC5)cc4)ncc3F)cc21` [Compound 522, 5-fluoro-4-(8-fluoro-4-isopropyl-3,4-dihydro-2H-benzo[b][1,4]oxazin-6-yl)-N-(4-((4-methylpiperazin-1-yl)sulfonyl)phenyl)pyrimidin-2-amine]: the half-maximal inhibitory concentration (IC50) was determined as 36 nM in test [1], 105 nM in test [2], 345 nM in test [4] (setting [6]) and 395 nM in test [5] (setting [7]).

With `CC(C)N1CCOc2c(F)cc(-c3nc(Nc4cn(C5CCNCC5)cn4)ncc3F)cc21` [Compound 504, 5-fluoro-4-(8-fluoro-4-isopropyl-3,4-dihydro-2H-benzo[b][1,4]oxazin-6-yl)-N-(1-(piperidin-4-yl)-1H-imidazol-4-yl)pyrimidin-2-amine], the half-maximal inhibitory concentration (IC50) in test [4] (setting [9]) was 1940 nM; in test [5] (setting [8]) it was 4150 nM.
